# Results reported in patent publication US20250339492A1, “METHOD OF TREATING OR PREVENTING AN ADVERSE SECONDARY NEUROLOGICAL OUTCOME FOLLOWING A HAEMORRHAGIC STROKE” (CSL BEHRING AG, priority 2021, published 2025).
# Entries after “also recorded” stand apart in the source; their conditions may differ.
# B1: heme:Hx: heme-hemopexin complex (1 mM) injected into striatum (protein, UniProt P02790 24-462, looked up)
# Hemopexin: TPLPPTSAHGNVAEGETKPDPDVTERCSDGWSFDATTLDDNGTMLFFKGEFVWKSHKWDRELISERWKNFPSPVDAAFRQGHNSVFLIKGDKVWVYPPEKKEKGYPKLLQDEFPGIPSPLDAAVECHRGECQAEGVLFFQGDREWFWDLATGTMKERSWPAVGNCSSALRWLGRYYCFQGNQFLRFDPVRGEVPPRYPRDVRDYFMPCPGRGHGHRNGTGHGNSTHHGPEYMRCSPHLVLSALTSDNHGATYAFSGTHYWRLDTSRDGWHSWPIAHQWPQGPSAVDAAFSWEEKLYLVQGTQVYVFLTKGGYTLVSGYPKRLEKEVGTPHGIILDSVDAAFICPGSSRLHIMAGRRLWWLDLKSGAQATWTELPWPHEKVDGALCMEKSLGPNSCSANGPGLYLIHGPNLYCYSDVEKLNAAKALPQPQNVTSLLGCTH
# modifications: heme complex
# notes: heme-hemopexin complex (1 mM) injected into striatum
# Key:
# C57BL/6J mice [1] = experiment: striatal injection model, behavioural testing (open field, rotarod, beam walk); assay type: in vivo; details: 24 hours after striatal injection of 10 μL, 1 mM; n=6 per group; FIG. 12
# From the text: (§1) Wild-type male C57BL/6J mice (10-12 weeks) were obtained from Charles River (Sulzfeld, Germany) and maintained at the animal facility of the University of Zurich (LASC) and treated in accordance with the guidelines of the Swiss Federal Veterinary Office.
# Mice were anesthetized with isoflurane (4-5% for induction, 1-2% for maintenance; Baxter Healthcare Co. Deerfield, IL, USA) evaporated in 100% oxygen. Throughout the surgical procedure, body temperature was monitored with a rectal probe and maintained constant with the use of an electronic thermostat-controlled warming blanket. Anesthetized mice were placed in a motorized stereotaxic frame (Stoelting, Dublin, Ireland) and a 1 cm long midline skin incision was made. After removal of the soft tissue covering the skull, the frame referenced to bregma and a small burrhole was drilled above the entry point for the target. Then a 33G needle was slowly advanced (0.1 mm/s) into the striatum (bregma coordinates: 2 mm ML, 0.5 mm AP, 3.5 mm DV) followed by injection of 10 μL heme-albumin (1 mM), haptoglobin (5 mM) (protein control group) or heme-hemopexin (1 mM) with an infusion rate of 100 nl/s. […] After the surgical procedure, the animals were placed in a heated wake up box and monitored until they were fully recovered and could be transferred back to their homecage.
# The open field exploration tests were conducted in four identical square arenas (40×40×35 cm high) made of opaque acrylic glass, located in a testing room under diffused lighting (approximately 35 Ix as measured in the center of the arenas). […] The total distance moved during 10 minutes (in cm), beginning after a 5 minutes acclimatization phase was measured.
# For the rotarod behavioural testing the mice are placed on a rotating cylinder and therefore forced to walk. […] The time until the mice fall off the cylinder is measured.
# For discrete neurological deficits, mice were subjected to a beam walk test. […] During the assessment, the motor function was scored by two investigators blinded to treatment.
# C57BL/6J mice [2] = experiment: striatal injection model, MRI (T2, ASL, DWI); assay type: in vivo; details: for quantification of edema size and perfusion: 24, 48 and 72 hours after striatal injection, n=4 per group, FIG. 14; for radiological changes (T2, ADC map, ASL): 24 hours after striatal injection, FIG. 13
# From the text: as §1
# Mice were anesthetized with isoflurane (4-5% for induction, 1-2% for maintenance; Baxter Healthcare Co. Deerfield, IL, USA) evaporated in 100% oxygen. Throughout the surgical procedure, body temperature was monitored with a rectal probe and maintained constant with the use of an electronic thermostat-controlled warming blanket. Anesthetized mice were placed in a motorized stereotaxic frame (Stoelting, Dublin, Ireland) and a 1 cm long midline skin incision was made. After removal of the soft tissue covering the skull, the frame referenced to bregma and a small burrhole was drilled above the entry point for the target. Then a 33G needle was slowly advanced (0.1 mm/s) into the striatum (bregma coordinates: 2 mm ML, 0.5 mm AP, 3.5 mm DV) followed by injection of 10 μL heme-albumin (1 mM), haptoglobin (5 mM) (protein control group) or heme-hemopexin (1 mM) with an infusion rate of 100 nl/s. The needle was left in place for 5 minutes, then removed slowly and the skin incision was closed with a suture. After the surgical procedure, the animals were placed in a heated wake up box and monitored until they were fully recovered and could be transferred back to their homecage.
# Mice were anesthetized with isoflurane (4-5% for induction, 1-2% for maintenance; Baxter Healthcare Co. Deerfield, IL, USA) evaporated in 100% oxygen. Throughout the imaging procedure, body temperature was monitored with a rectal probe and maintained constant with the use of a warming blanket and respiratory rate was recorded by plethysmography. Mice were placed into a 7 T small animal MRI scanner (Brucker, Germany). T2, ASL and DWI images were recorded according to a standardized protocol.
# CSF-Hb = molecular target: T1, CSF-Hb (Homo sapiens, UniProt P68871+P69905); experiment: oxidative potential of patient CSF after aSAH (TBARS, MDA formation) with addition of Hp or hemopexin; assay type: biochemical; details: added at equimolar concentration, patient CSF of high risk phase week 0.5-2, FIG. 5D
# T1 construct: from tissue; host or cells: cerebrospinal fluid of patients after aSAH (high-risk phase, week 0.5-2)
# Procedure: Hb used in ex vivo experiments was purified from expired human blood concentrates as previously described (Elmer et al., 2009). Hb concentrations were determined by spectral deconvolution as described above and are given as molar concentrations of total heme (1 M Hb tetramer is equivalent to 4 M heme). Hx was used in equimolar concentration to the concentration of heme measured in the test sample. For all Hb used in these studies, the fraction of ferrous oxyHb (HbFe2+O2) was always greater than 98% as determined by spectrophotometry. Purified haptoglobin (phenotype 1-1) and hemopexin from human plasma was obtained from CSL Behring.
# The oxidative potential of CSF samples was quantified by measuring the formation of malondialdehyde (MDA) as the final product of lipid peroxidation after incubation with a well-defined reconstituted lipoprotein (rLP, obtained from CSL Behring, Bern, Switzerland) (FIG. 7G). Using a 96-well plate, 25 μL CSF were mixed with 5 μL rLP (3 mg/mL) and incubated at 37° C. for 24 hours. Subsequently, the concentration of MDA was measured using a thiobarbituric acid reactive substance (TBARS) assay. In short 125 μL of 750 mM trichloroacetic acid in 1 M HCl was added to the samples, followed by short vortexing and subsequent addition of 100 μL 25 mM 2-thiobarbituric acid in 1 M NaOH.
# After an incubation period at 80° for 60 min, the TBARS in the supernatant were quantified. For absolute quantification of MDA, the absorption at 600 nm was subtracted from the absorption at 532 nm and the concentration was calculated with the molar extinction 9 coefficient of […]. To achieve a more sensitive but relative quantification, the fluorescence emission was measured at 550 nm, using 510 nm as excitation wavelength.
# porcine basilar arteries = experiment: vascular function assay, porcine basilar arteries pre-contracted with PGF2α
# Procedure: The vascular function assay (FIG. 7E) was performed using fresh porcine basilar arteries obtained from a local abattoir (n=12). Vessels were pre stretched to reach 8 the optimal passive pretension as previously published (Hugelshofer et al., 2020). Then, 10 μM prostaglandin F2α (PGF2α; Sigma, Buchs, Switzerland) was used as a pre-contracting agent. In order to determine the maximum possible tension in absence of endogenous NO, L-N5-(1-Iminoethyl) ornithine hydrochloride (L-NIO; Sigma-Aldrich, Saint Louis, US-MO) at a concentration of 10 μM was added at the end of the experiment. The recorded tension was normalized to the individual NO reserve capacity of the respective vessel, i.e. the baseline tension after addition of PGF2α (0%) and the tension after addition of L-NIO at the end of the experiment (100%) (FIG. 7F). Damaged vessels with a continuous loss in tension over the duration of the experiment, resulting in a PGF2α max/L-NIO max ratio below 0.7, were excluded from the analysis (FIG. 7F). A first series of experiments was conducted to evaluate the vasoconstrictive potential of the patient CSF in the high-risk phase for SAH-SBI after aSAH and to assess the specific role of oxyHb in this process. […] In a second series of experiments, the influence of an increasing exposure to Hb on the vascular tension was assessed. […]
# [3] = formation of heme:Hx complexes in the CSF; details: cell-free heme within the subarachnoid space
# [4] = read-out: ability to bind heme with high affinity (Kd); cited from earlier work
# T1 sequence (P69905 2-142 limits assumed): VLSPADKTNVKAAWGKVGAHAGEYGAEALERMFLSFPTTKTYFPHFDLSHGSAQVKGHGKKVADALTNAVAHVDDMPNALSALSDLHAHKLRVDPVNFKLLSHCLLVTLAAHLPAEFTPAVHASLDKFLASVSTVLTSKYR
# T1 sequence (P68871 2-147 limits assumed): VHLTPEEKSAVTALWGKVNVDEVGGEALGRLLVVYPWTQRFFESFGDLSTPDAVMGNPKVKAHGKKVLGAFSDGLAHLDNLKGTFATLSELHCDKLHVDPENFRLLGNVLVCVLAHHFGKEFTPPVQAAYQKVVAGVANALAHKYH
Molecule,"neurological function (open-field, rotarod, beamwalk testing) (C57BL/6J mice [1])",quantification of edema size and perfusion (C57BL/6J mice [2]),MDA formation (lipid peroxidation) (CSF-Hb),also measured
C=CC1=C(C)c2cc3[n-]c(cc4[n-]c(cc5nc(cc1n2)C(C)=C5C=C)c(C)c4CCC(=O)O)c(CCC(=O)O)c3C.[Fe+2] [heme],impaired neurological function; also recorded: impaired neurobehavioral function,formation of a cerebral edema and a regionally decreased perfusion,–,"radiological changes (T2, ADC map, ASL) (C57BL/6J mice [2]): perilesional edema, a diffusion restriction in the ADC map and a focal perfusion deficit"
Hp1-1: Purified haptoglobin (phenotype 1-1) from human plasma obtained from CSL Behring,–,–,effectively attenuated MDA formation,"MDA formation (lipid peroxidation) (CSF-Hb; listed as haptoglobin): partial inhibition; contractile force of basilar arteries (anti-vasospastic effect) (porcine basilar arteries; Hb dose escalation with equimolar haptoglobin, repeated measures ANOVA p<0.001, FIG. 5C): significantly attenuated the contractile force"
hemopexin: Purified hemopexin from human plasma obtained from CSL Behring; heme-scavenger protein,abrogates the heme-mediated impairment of neurological function,–,even stronger attenuation of MDA formation; also recorded: virtually blocked the formation of MDA; also recorded: surpassed the antioxidant function of haptoglobin,period of exposure sufficient to form detectable heme:Hx complexes in the CSF [3]: at least 2 minutes; Kd [4]: < 1 pM
oxyHb: Hb purified from expired human blood concentrates; fraction of ferrous oxyHb greater than 98% [reference compound],–,–,–,oxyHb concentration reaching maximum contraction (porcine basilar arteries; FIG. 4A): 10^−5 M
B1,no impairment in neurobehavioral activity,absent,–,"radiological changes (T2, ADC map, ASL) (C57BL/6J mice [2]; listed as heme:Hpx): only minor radiological changes; also recorded: largely absent"
